Consider eleven compounds from PubChem BioAssay AID1259407 (Chemical Carcinogenesis Research Information System (CCRIS), 2018).

Activity calls are given as the source filed them. No rule for the calls is given here.

The data set has as its system CCRIS mutagenicity, Ames/micronucleus/aberration tests. Description: CCRIS mutagenicity studies.
Setting [1] is: Test System: AMES SALMONELLA TYPHIMURIUM, Strain/Indicator: TA98, Metabolic Activation: HAMSTER, LIVER, S-9, AROCLOR 1254 (10%), Method: PREINCUBATION
Where [2] appears, read: Test System: AMES SALMONELLA TYPHIMURIUM, Strain/Indicator: TA98, Metabolic Activation: NONE, Method: PREINCUBATION
Setting [3] is: Test System: AMES SALMONELLA TYPHIMURIUM, Strain/Indicator: TA98, Metabolic Activation: RAT, LIVER, S-9, AROCLOR 1254 (10%), Method: PREINCUBATION
The mark [4] stands for this setting: Test System: AMES SALMONELLA TYPHIMURIUM, Strain/Indicator: TA100, Metabolic Activation: HAMSTER, LIVER, S-9, AROCLOR 1254 (10%), Method: PREINCUBATION
[5] abbreviates: Test System: AMES SALMONELLA TYPHIMURIUM, Strain/Indicator: TA100, Metabolic Activation: NONE, Method: PREINCUBATION
[6] abbreviates: Test System: AMES SALMONELLA TYPHIMURIUM, Strain/Indicator: TA100, Metabolic Activation: RAT, LIVER, S-9, AROCLOR 1254 (10%), Method: PREINCUBATION
Where [7] appears, read: Test System: AMES SALMONELLA TYPHIMURIUM, Strain/Indicator: TA1535, Metabolic Activation: HAMSTER, LIVER, S-9, AROCLOR 1254 (10%), Method: PREINCUBATION
Setting [8] is: Test System: AMES SALMONELLA TYPHIMURIUM, Strain/Indicator: TA1535, Metabolic Activation: NONE, Method: PREINCUBATION
Setting [9] is: Test System: AMES SALMONELLA TYPHIMURIUM, Strain/Indicator: TA1535, Metabolic Activation: RAT, LIVER, S-9, AROCLOR 1254 (10%), Method: PREINCUBATION
[10] abbreviates: Test System: AMES SALMONELLA TYPHIMURIUM, Strain/Indicator: TA1537, Metabolic Activation: HAMSTER, LIVER, S-9, AROCLOR 1254 (10%), Method: PREINCUBATION
Where [11] appears, read: Test System: AMES SALMONELLA TYPHIMURIUM, Strain/Indicator: TA1537, Metabolic Activation: NONE, Method: PREINCUBATION
Setting [12] is: Test System: AMES SALMONELLA TYPHIMURIUM, Strain/Indicator: TA1537, Metabolic Activation: RAT, LIVER, S-9, AROCLOR 1254 (10%), Method: PREINCUBATION
[13] abbreviates: Test System: AMES SALMONELLA TYPHIMURIUM, Strain/Indicator: TA100, Metabolic Activation: NONE, Method: STANDARD PLATE.
Where [14] appears, read: Test System: AMES SALMONELLA TYPHIMURIUM, Strain/Indicator: TA1538, Metabolic Activation: NONE, Method: PREINCUBATION
Where [15] appears, read: Test System: AMES SALMONELLA TYPHIMURIUM, Strain/Indicator: TA98, Metabolic Activation: RAT, LIVER, S-9, AROCLOR 1254, Method: STANDARD PLATE.
The mark [16] stands for this setting: Test System: AMES SALMONELLA TYPHIMURIUM, Strain/Indicator: TA100, Metabolic Activation: RAT, LIVER, S-9, AROCLOR 1254, Method: STANDARD PLATE.
[17] abbreviates: Test System: AMES SALMONELLA TYPHIMURIUM, Strain/Indicator: TA98, Metabolic Activation: NONE, Method: STANDARD PLATE.

In the case of `NC(Cc1ccc(F)cc1)C(=O)O` (configuration not stated), the mutagenic call runs as follows: under setting [1], “inactive; negative”; under setting [2], “inactive; negative”; under setting [3], “inactive; negative”; under setting [4], “inactive; negative”; under setting [5], “inactive; negative”; under setting [6], “inactive; negative”. Further, the mutagenic call is “inactive; negative” under setting [7]; “inactive; negative” under setting [8]; “inactive; negative” under setting [9]; “inactive; negative” under setting [10]; “inactive; negative” under setting [11]; “inactive; negative” under setting [12].

As to `CC(=O)O[C@@H]1[C@H](OC(C)=O)COC(Nc2ccc([N+](=O)[O-])cc2)[C@@H]1OC(C)=O` (some centres not stated), the mutagenic call under setting [13] is “active; positive”.

Consider `O=C(Cl)c1ccc(C(=O)Cl)cc1`, for which the mutagenic call is “active; positive” under setting [2]; “active; positive” (Test System: AMES SALMONELLA TYPHIMURIUM, Strain/Indicator: TA98, Metabolic Activation: RAT LIVER S-9, PCB, Method: PREINCUBATION); “active; positive” under setting [5]; “active; positive” (Test System: AMES SALMONELLA TYPHIMURIUM, Strain/Indicator: TA100, Metabolic Activation: RAT LIVER S-9, PCB, Method: PREINCUBATION); “active; positive” (Test System: AMES SALMONELLA TYPHIMURIUM, Strain/Indicator: TA104, Metabolic Activation: NONE, Method: PREINCUBATION); “active; positive” (Test System: AMES SALMONELLA TYPHIMURIUM, Strain/Indicator: TA104, Metabolic Activation: RAT LIVER S-9, PCB, Method: PREINCUBATION). For the same compound, the mutagenic call runs as follows: (Test System: E.COLI, Strain/Indicator: WP2 UVRA, Metabolic Activation: NONE, Method: PREINCUBATION) “active; positive”; (Test System: E.COLI, Strain/Indicator: WP2 UVRA, Metabolic Activation: RAT LIVER S-9, PCB, Method: PREINCUBATION) “active; positive”.

As to `CC(=O)c1ccccc1[N+](=O)[O-]`, the mutagenic call was “inactive; negative” under setting [1]; “inactive; negative” under setting [2]; “inactive; negative” under setting [3]; “inactive; negative” (Test System: AMES SALMONELLA TYPHIMURIUM, Strain/Indicator: TA98, Method: PREINCUBATION); “inactive; negative” under setting [4]; “inactive; negative” under setting [5]. For the same compound, the mutagenic call under setting [6] is “inactive; negative”; the mutagenic call (Test System: AMES SALMONELLA TYPHIMURIUM, Strain/Indicator: TA100, Method: PREINCUBATION) was “inactive; negative”; the mutagenic call under setting [7] was “inactive; negative”; the mutagenic call under setting [8] was “inactive; negative”; the mutagenic call under setting [9] is “inactive; negative”; the mutagenic call (Test System: AMES SALMONELLA TYPHIMURIUM, Strain/Indicator: TA1535, Method: PREINCUBATION) is “inactive; negative”. Moreover, the mutagenic call reads like this: under setting [10], “inactive; negative”; under setting [11], “inactive; negative”; under setting [12], “inactive; negative”; (Test System: AMES SALMONELLA TYPHIMURIUM, Strain/Indicator: TA1537, Method: PREINCUBATION) “inactive; negative”; under setting [14], “inactive; negative”; (Test System: AMES SALMONELLA TYPHIMURIUM, Strain/Indicator: TA1538, Method: PREINCUBATION) “inactive; negative”.

Turning to `O=S(=O)(O)c1ccc2ccc3cccc4ccc1c2c34`, the mutagenic call reads like this: under setting [15], “inactive; negative”; under setting [16], “active; positive”.

With `O[C@H]1C=Cc2c(ccc3cc4c(ccc5ccccc54)cc23)[C@@H]1O`, the mutagenic call under setting [16] is “active; positive”.

On to `C1CN(SSN2CCOCC2)CCO1`, for which the mutagenic call by setting is: under setting [2], “inactive; negative”; (Test System: AMES SALMONELLA TYPHIMURIUM, Strain/Indicator: TA98, Metabolic Activation: RAT LIVER S-9, PHENOBARBITAL AND BETA-NAPHTHOFLAVONE, Method: PREINCUBATION) “inactive; negative”; under setting [5], “inactive; negative”; (Test System: AMES SALMONELLA TYPHIMURIUM, Strain/Indicator: TA100, Metabolic Activation: RAT LIVER S-9, PHENOBARBITAL AND BETA-NAPHTHOFLAVONE, Method: PREINCUBATION) “inactive; negative”; under setting [8], “inactive; negative”; (Test System: AMES SALMONELLA TYPHIMURIUM, Strain/Indicator: TA1535, Metabolic Activation: RAT LIVER S-9, PHENOBARBITAL AND BETA-NAPHTHOFLAVONE, Method: PREINCUBATION) “inactive; negative”. Also, the mutagenic call under setting [11] is “inactive; negative”; the mutagenic call (Test System: AMES SALMONELLA TYPHIMURIUM, Strain/Indicator: TA1537, Metabolic Activation: RAT LIVER S-9, PHENOBARBITAL AND BETA-NAPHTHOFLAVONE, Method: PREINCUBATION) was “inactive; negative”; the mutagenic call under setting [14] is “inactive; negative”; the mutagenic call (Test System: AMES SALMONELLA TYPHIMURIUM, Strain/Indicator: TA1538, Metabolic Activation: RAT LIVER S-9, PHENOBARBITAL AND BETA-NAPHTHOFLAVONE, Method: PREINCUBATION) is “inactive; negative”; the mutagenic call (Test System: E.COLI, Strain/Indicator: WP2UVRA, Metabolic Activation: NONE, Method: PREINCUBATION) is “inactive; negative”; the mutagenic call (Test System: E.COLI, Strain/Indicator: WP2UVRA, Metabolic Activation: RAT LIVER S-9, PHENOBARBITAL AND BETA-NAPHTHOFLAVONE, Method: PREINCUBATION) is “inactive; negative”.

Turning to `CN(C)CCNC(=O)c1cccc2c1ncc1ccccc12`, the mutagenic call (Test System: AMES SALMONELLA TYPHIMURIUM, Strain/Indicator: TA1537, Metabolic Activation: NONE, Method: STANDARD PLATE) was “active; positive”.

As for `Nc1c2ccccc2nc2ccc(Cl)cc12`, the mutagenic call under setting [11] was “active; positive”.

As to `O=NN1C(C(=O)O)CSC1C(O)C(O)C(O)C(O)CO` (configuration not stated), the mutagenic call reads like this: under setting [2], “inactive; negative”; under setting [17], “inactive; negative”; (Test System: AMES SALMONELLA TYPHIMURIUM, Strain/Indicator: TA98, Metabolic Activation: RAT, LIVER, S-9, AROCLOR 1254, Method: PREINCUBATION) “inactive; negative”; under setting [15], “inactive; negative”; under setting [5], “inactive; negative”; under setting [13], “inactive; negative”. Besides, the mutagenic call was “inactive; negative” (Test System: AMES SALMONELLA TYPHIMURIUM, Strain/Indicator: TA100, Metabolic Activation: RAT, LIVER, S-9, AROCLOR 1254, Method: PREINCUBATION) and “inactive; negative” under setting [16].

For the compound `ONc1ccc(Sc2ccccc2)cc1`, the mutagenic call is “active; positive” (Test System: AMES SALMONELLA TYPHIMURIUM, Strain/Indicator: TA98(1,8-DNP6), Metabolic Activation: NONE, Method: STANDARD PLATE); “active; positive” (Test System: AMES SALMONELLA TYPHIMURIUM, Strain/Indicator: TA98(NR), Metabolic Activation: NONE, Method: STANDARD PLATE); “active; positive” under setting [17].
